Data: EP2154155B1, “Analysis of agonist-activity and antagonist-activity to cytokinin receptor” (Sumitomo Chemical Company, Limited, priority 2001, dated 2002)

Key:
[1] = test system: Arabidopsis thaliana cytokinin receptor AHK3, SEQ ID No: 4, expressed in transformed cell TM182-AHK3; assay: Agonist-activity search: optical density of TM182-AHK3 liquid culture in 96-well plate; format: cell-based; settings: examinee substance 100 µM at the final concentration, DOLU + Glu medium, 30°C, 24 hours, DMSO blank 0.51
Description: (§2) The pre-cultured solutions were diluted with DOLU + Glu media as to become 0.100 as the optical density (OD600) and further the resultants were diluted with DOLU + Glu media at a dilution rate of 1/200 to obtain diluted pre-cultured solutions.
(§3) An assay plate was prepared by filling respective wells of a 96-well plate with 20 µl of solutions which were prepared by diluting DMSO solution (10mM) of each examinee substance with DOLU + Glu medium at a dilution rate of 1/100, said solutions containing each examinee substance to be 100 µM at the final concentration. Simultaneously, an assay plate only filled with 20 µl of solutions which were prepared by diluting DMSO solution with DOLU + Glu medium, said solutions containing no examinee substance, was prepared as the blank sections.
(§4) The diluted pre-cultured solutions were added in 200 µl each into the respective wells of both assay plates and cultured at 30°C for 24 hours and then the optical density (OD620) of each well was measured by a plate reader. The agonist-activity of the examinee substances to the cytokinin receptor was detected by comparing the optical density measured in the testing sections to which the examinee substances were added with the optical density measured in the blank sections.

[2] = test system: Arabidopsis thaliana cytokinin receptor AHK2, SEQ ID No: 2, expressed in transformed cell TM182-AHK2; assay: Agonist-activity search: optical density of TM182-AHK2 liquid culture in 96-well plate; format: cell-based; settings: examinee substance 100 µM at the final concentration, DOLU + Glu medium, 30°C, 24 hours, DMSO blank 0.01
Description: as §2, §3, §4

[3] = test system: Arabidopsis thaliana cytokinin receptor AHK2, SEQ ID No: 2, expressed in transformed cell TM182-AHK2; settings: 30°C, 30 hours
Description: (§1) More particularly, for example, in the case of using a transformed cell (that is, a transformed cell having a function of directly controlling the cell growth by intracellular signal transduction from the cytokinin receptor) produced using TM182 (sln1 Δ) [Maeda T et al, Nature 369: 242-245 (1994)], a SLN1 genetically defected strain in which, for example, PTP2 Tyrosine phosphatase gene [Ota et al. Proc. N. A. Sci., USA, 89, 2355-2359 (1992)] is introduced as a host cell, the agonist-activity to the cytokinin receptor may be measured using, as an indicator, the quantity of the cell growth of the transformed cell in a culture medium (an agar culture medium or a liquid culture medium) containing glucose as a carbon source, for example, a DOLU + Glu culture medium. In the case of the DOLU + Glu culture medium to which the examinee substance is added, the examinee substance found capable of growing the transformed cell can be evaluated as a substance having the agonist-activity to the cytokinin receptor. On the other hand, in the case of the DOLU+Glu culture medium to which the examinee substance and a substance having the agonist-activity to the cytokinin receptor are added, the examinee substance found capable of suppressing or inhibiting the growth of the transformed cell can be evaluated as a substance having the antagonist-activity to the cytokinin receptor. […]

[4] = test system: Arabidopsis thaliana cytokinin receptor CRE1, SEQ ID No: 6, expressed in transformed cell TM182-CRE1; assay: Growth of transformed yeast cells TM182-CRE1 spotted on DOLU + Glu agar media containing cytokinin; format: cell-based; settings: 30°C, 30 hours; for lowest observed supply concentration in which the transformed cells could be grown: DOLU + Glu agar media, cytokinin 1 nM to 100 µM
Description: More particularly, for example, in the case of using a transformed cell (that is, a transformed cell having a function of directly controlling the cell growth by intracellular signal transduction from the cytokinin receptor) produced using TM182 (sln1 Δ) [Maeda T et al, Nature 369: 242-245 (1994)], a SLN1 genetically defected strain in which, for example, PTP2 Tyrosine phosphatase gene [Ota et al. Proc. N. A. Sci., USA, 89, 2355-2359 (1992)] is introduced as a host cell, the agonist-activity to the cytokinin receptor may be measured using, as an indicator, the quantity of the cell growth of the transformed cell in a culture medium (an agar culture medium or a liquid culture medium) containing glucose as a carbon source, for example, a DOLU + Glu culture medium. In the case of the DOLU + Glu culture medium to which the examinee substance is added, the examinee substance found capable of growing the transformed cell can be evaluated as a substance having the agonist-activity to the cytokinin receptor. On the other hand, in the case of the DOLU+Glu culture medium to which the examinee substance and a substance having the agonist-activity to the cytokinin receptor are added, the examinee substance found capable of suppressing or inhibiting the growth of the transformed cell can be evaluated as a substance having the antagonist-activity to the cytokinin receptor.
Transformation of TM182 (sln1Δ), SLN1 genetically detected strain, [Maeda T et al. Nature: 369 242-245 (1994)] was carried out using the obtained expression plasmid p415CYC-CRE1 (the example 5), p415CYC-AHK2 (the example 11), p415CYC-AHK2 Δ (the example 11) and p415CYC-AHK3 (the example 8). The transformation was carried out by employing Polyethylene glycol/lithium acetate (PEG/LiAc)-mediated transformation method according to the description of VII. Library Transformation & Screening Protocols disclosed in […] Two-Hybrid System 3 User Manual p.
After incubation, the growth state of the transformed cells was observed and photographed by a digital camera. […]

[5] = test system: Arabidopsis thaliana cytokinin receptor AHK3, SEQ ID No: 4, expressed in transformed cell TM182-AHK3; settings: DOLU + Glu agar media containing 10 µM of trans-zeatin, 30°C, 30 hours, compared with media containing no trans-zeatin
Description: as §1

[6] = test system: Arabidopsis thaliana cytokinin receptor AHK2 variant AHK2Δ (partially transmembrane region-deleted type, amino acid number 196 to 1176 of SEQ ID No: 2) …; assay: Growth of transformed yeast cells TM182-AHK2Δ spotted on DOLU + Glu agar media containing cytokinin; format: cell-based; settings: 30°C, 30 hours
Description: as §1

[7] = test system: Arabidopsis thaliana cytokinin receptor AHK2 variant AHK2Δ (partially transmembrane region-deleted type, amino acid number 196 to 1176 of SEQ ID No: 2) …; assay: Agonist-activity search: optical density of TM182-AHK2Δ liquid culture in 96-well plate; settings: examinee substance 100 µM at the final concentration, DOLU + Glu medium, 30°C, 24 hours, DMSO blank 0
Description: The transformed cells TM 182-CRE 1, TM182-AHK2,TM182-AHK2 Δ and TM182-AHK3 produced in the example 12 were inoculated in 200 ml of DOLU + Gal culture media and pre-cultured at 30°C for 36 hours. The pre-cultured solutions were diluted with DOLU + Glu media as to become 0.100 as the optical density (OD600) and further the resultants were diluted with DOLU + Glu media at a dilution rate of 1/200 to obtain diluted pre-cultured solutions.
An assay plate was prepared by filling respective wells of a 96-well plate with 20 µl of solutions which were prepared by diluting DMSO solution (10mM) of each examinee substance with DOLU + Glu medium at a dilution rate of 1/100, said solutions containing each examinee substance to be 100 µM at the final concentration. […]
as §4

[8] = DOLU + Glu agar media containing 10 µM of trans-zeatin, compared with media containing no trans-zeatin
[9] = DOLU + Glu agar media, cytokinin 1 nM to 100 µM

SMILES: CC1=CC(=O)CC(C)(C)[C@@]1(O)/C=C/C(C)=C\C(=O)O [Compound A, Abscisic acid]
- optical density (OD620) of the culture solutions of the transformed cells [1]: 0.54
- optical density (OD620) of the culture solutions of the transformed cells [2]: 0.01

SMILES: C/C(=C\CNc1ncnc2[nH]cnc12)CO [trans-zeatin]
- growth state of the transformed cells [3, 8]: high growth
- growth state of the transformed cells [4, 8]: high growth
- lowest observed supply concentration in which the transformed cells could be grown [4]: 10 µ M
- growth state of the transformed cells [5]: high growth
- growth state of the transformed cells [6, 8]: high growth
- lowest observed supply concentration in which the transformed cells could be grown [6, 9]: 100 nM

SMILES: c1ccc(CNc2ncnc3nc[nH]c23)cc1 [Compound B, 6-Benzyl aminopurine]
- optical density (OD620) of the culture solutions of the transformed cells [7]: 0.89
- optical density (OD620) of the culture solutions of the transformed cells [1]: 0.88
- optical density (OD620) of the culture solutions of the transformed cells [2]: 0.45

SMILES: C/C(=C/CNc1ncnc2[nH]cnc12)CO [cis-zeatin]
- lowest observed supply concentration in which the transformed cells could be grown [3, 9]: 10 µ M
- lowest observed supply concentration in which the transformed cells could be grown [4]: no growth
